From US8664257B2, “Oxygen-substituted 3-heteroaroylamino-propionic acid derivatives and their use as pharmaceuticals” (Sanofi, priority 2010, dated 2014)

The compounds below were run against T1, Recombinant human cathepsin A (Homo sapiens, UniProt P10619) (assay: Cathepsin A inhibitory activity). Conditions: read-out: Activity (2): Cathepsin A inhibitory activity, IC50 class.
T1 construct: Recombinant human cathepsin A (residues 29-480, with a C-terminal 10-His tag); 10-His (C); purchased R&D Systems 1049-SE
T1 sequence (P10619 29-312 limits assumed): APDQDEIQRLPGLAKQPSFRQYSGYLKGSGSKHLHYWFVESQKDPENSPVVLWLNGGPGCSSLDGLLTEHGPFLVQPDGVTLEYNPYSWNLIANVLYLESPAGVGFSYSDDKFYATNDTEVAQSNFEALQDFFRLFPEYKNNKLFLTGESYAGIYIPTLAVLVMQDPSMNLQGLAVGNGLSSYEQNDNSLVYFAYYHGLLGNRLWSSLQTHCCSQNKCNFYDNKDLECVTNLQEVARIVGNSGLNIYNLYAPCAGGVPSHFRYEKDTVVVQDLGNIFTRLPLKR
T1 sequence (P10619 327-480 limits assumed): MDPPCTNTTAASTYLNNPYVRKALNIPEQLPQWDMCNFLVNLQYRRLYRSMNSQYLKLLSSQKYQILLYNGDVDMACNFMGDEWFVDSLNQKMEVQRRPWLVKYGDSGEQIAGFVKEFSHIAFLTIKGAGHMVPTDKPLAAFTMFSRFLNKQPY
Assay type: biochemical
Method in brief: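 Read-out was microfluidic separation of cleaved vs. uncleaved Bodipy FL-bradykinin (2 μM), giving turnover, % inhibition and IC50. Compound and 833 ng/ml enzyme met for 15 min RT in pH 5.5 MES/DTT before substrate (15 min RT). The 29-480 His-tagged human enzyme was first activated by cathepsin L, then E-64 (10 μM).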

Structure (SMILES) | IC50
CC(C)(C)[C@H](O)COc1cc(C(=O)N[C@@H](CC(=O)O)c2ccc(Cl)cc2)nn1-c1ccccc1F [Example 794, (S)-3-(4-Chloro-phenyl)-3-{[1-(2-fluoro-phenyl)-5-((S)-2-hydroxy-3,3-dimethyl-butoxy)-1H-pyrazole-3-carbonyl]-amino}-propionic acid] | < 100 nM
CC(C)(C)[C@@H](O)COc1cc(C(=O)N[C@@H](CC(=O)O)c2cccc(Cl)c2)nn1-c1ccccc1F [Example 795, (S)-3-(3-Chloro-phenyl)-3-{[1-(2-fluoro-phenyl)-5-((R)-2-hydroxy-3,3-dimethyl-butoxy)-1H-pyrazole-3-carbonyl]-amino}-propionic acid] | < 100 nM
CC(C)(C)C(=O)COc1cc(C(=O)N[C@@H](CC(=O)O)c2cccc(Cl)c2)nn1-c1ccccc1F [Example 796, (S)-3-(3-Chloro-phenyl)-3-{[5-(3,3-dimethyl-2-oxo-butoxy)-1-(2-fluoro-phenyl)-1H-pyrazole-3-carbonyl]-amino}-propionic acid] | < 100 nM
CC(C)(C)[C@H](O)COc1cc(C(=O)N[C@@H](CC(=O)O)c2ccccc2Cl)nn1-c1ccccc1F [Example 797, (S)-3-(2-Chloro-phenyl)-3-{[1-(2-fluoro-phenyl)-5-((S)-2-hydroxy-3,3-dimethyl-butoxy)-1H-pyrazole-3-carbonyl]-amino}-propionic acid] | < 100 nM
CC(C)(C)[C@](C)(O)COc1cc(C(=O)N[C@@H](CC(=O)O)c2cccc(Cl)c2)nn1-c1ccccc1F [Example 798, (S)-3-(3-Chloro-phenyl)-3-{[1-(2-fluoro-phenyl)-5-((S)-2-hydroxy-2,3,3-trimethyl-butoxy)-1H-pyrazole-3-carbonyl]-amino}-propionic acid] | < 100 nM
CC(C)(C)[C@](C)(O)COc1cc(C(=O)N[C@@H](CC(=O)O)c2ccccc2C(F)(F)F)nn1-c1ccccc1F [Example 799, (S)-3-{[1-(2-Fluoro-phenyl)-5-((S)-2-hydroxy-2,3,3-trimethyl-butoxy)-1H-pyrazole-3-carbonyl]-amino}-3-(2-trifluoromethyl-phenyl)-propionic acid] | < 100 nM
CC(C)(C)[C@H](O)COc1cc(C(=O)N[C@@H](CC(=O)O)c2cccc(Cl)c2Cl)nn1-c1ccccc1F [Example 800, (S)-3-(2,3-Dichloro-phenyl)-3-{[1-(2-fluoro-phenyl)-5-((S)-2-hydroxy-3,3-dimethyl-butoxy)-1H-pyrazole-3-carbonyl]-amino}-propionic acid] | < 100 nM
Cc1ccc([C@H](CC(=O)O)NC(=O)c2cc(OC[C@@H](O)C(C)(C)C)n(-c3ccccc3F)n2)cc1 [Example 801, (S)-3-{[1-(2-Fluoro-phenyl)-5-((S)-2-hydroxy-3,3-dimethyl-butoxy)-1H-pyrazole-3-carbonyl]-amino}-3-p-tolyl-propionic acid] | < 100 nM
COc1cccc([C@H](CC(=O)O)NC(=O)c2cc(OCC(C)(O)C(C)C)n(-c3ccccc3F)n2)c1 (stereo partly drawn) [Example 802, (S)-3-{[1-(2-Fluoro-phenyl)-5-(2-hydroxy-2,3-dimethyl-butoxy)-1H-pyrazole-3-carbonyl]-amino}-3-(3-methoxy-phenyl)-propionic acid] | < 100 nM
CC(C)[C@](C)(O)COc1cc(C(=O)NC(CC(=O)O)C2CCCCC2)nn1-c1ccccc1F (stereo partly drawn) [Example 803, 3-Cyclohexyl-3-{[1-(2-fluoro-phenyl)-5-((S)-2-hydroxy-2,3-dimethyl-butoxy)-1H-pyrazole-3-carbonyl]-amino}-propionic acid] | < 100 nM
Cc1cccc([C@H](CC(=O)O)NC(=O)c2cc(OC[C@H](O)C(C)(C)C)n(-c3ccccc3F)n2)c1 [Example 804, (S)-3-{[1-(2-Fluoro-phenyl)-5-((R)-2-hydroxy-3,3-dimethyl-butoxy)-1H-pyrazole-3-carbonyl]-amino}-3-m-tolyl-propionic acid] | < 100 nM
Cc1cccc([C@H](CC(=O)O)NC(=O)c2cc(OCC(=O)C(C)(C)C)n(-c3ccccc3F)n2)c1 [Example 805, (S)-3-{[5-(3,3-Dimethyl-2-oxo-butoxy)-1-(2-fluoro-phenyl)-1H-pyrazole-3-carbonyl]-amino}-3-m-tolyl-propionic acid] | < 100 nM
COc1cccc([C@H](CC(=O)O)NC(=O)c2cc(OC[C@](C)(O)C(C)C)n(-c3ccccc3F)n2)c1 [Example 806, (S)-3-{[1-(2-Fluoro-phenyl)-5-((R)-2-hydroxy-2,3-dimethyl-butoxy)-1H-pyrazole-3-carbonyl]-amino}-3-(3-methoxy-phenyl)-propionic acid] | < 100 nM
CC(C)C(C)(O)COc1cc(C(=O)N[C@@H](CC(=O)O)c2cccc(C#N)c2)nn1-c1ccccc1F (stereo partly drawn) [Example 807, (S)-3-(3-Cyano-phenyl)-3-{[1-(2-fluoro-phenyl)-5-(2-hydroxy-2,3-dimethyl-butoxy)-1H-pyrazole-3-carbonyl]-amino}-propionic acid] | < 100 nM
CC(C)C(C)(O)COc1cc(C(=O)N[C@@H](CC(=O)O)c2c(F)cccc2F)nn1-c1ccccc1F (stereo partly drawn) [Example 808, (S)-3-(2,6-Difluoro-phenyl)-3-{[1-(2-fluoro-phenyl)-5-(2-hydroxy-2,3-dimethyl-butoxy)-1H-pyrazole-3-carbonyl]-amino}-propionic acid] | < 100 nM
CC(C)(C)[C@H](O)COc1cc(C(=O)N[C@@H](CC(=O)O)c2cccc(Cl)c2)nn1-c1ccccc1F [Example 809, (S)-3-(3-Chloro-phenyl)-3-{[1-(2-fluoro-phenyl)-5-((S)-2-hydroxy-3,3-dimethyl-butoxy)-1H-pyrazole-3-carbonyl]-amino}-propionic acid] | < 100 nM
COc1ccccc1[C@H](CC(=O)O)NC(=O)c1cc(OC[C@@](C)(O)C(C)(C)C)n(-c2ccccc2F)n1 [Example 810, (S)-3-{[1-(2-Fluoro-phenyl)-5-((S)-2-hydroxy-2,3,3-trimethyl-butoxy)-1H-pyrazole-3-carbonyl]-amino}-3-(2-methoxy-phenyl)-propionic acid] | < 100 nM
COc1ccccc1[C@H](CC(=O)O)NC(=O)c1cc(OCC(C)(O)C(C)C)n(-c2ccccc2F)n1 (stereo partly drawn) [Example 811, (S)-3-{[1-(2-Fluoro-phenyl)-5-(2-hydroxy-2,3-dimethyl-butoxy)-1H-pyrazole-3-carbonyl]-amino}-3-(2-methoxy-phenyl)-propionic acid] | < 100 nM
CC(C)C(C)(O)COc1cc(C(=O)N[C@@H](CC(=O)O)c2ccccc2C(F)(F)F)nn1-c1ccccc1F (stereo partly drawn) [Example 812, (S)-3-{[1-(2-Fluoro-phenyl)-5-(2-hydroxy-2,3-dimethyl-butoxy)-1H-pyrazole-3-carbonyl]-amino}-3-(2-trifluoromethyl-phenyl)-propionic acid] | < 100 nM
CC(C)C(C)(O)COc1cc(C(=O)NC(CC(=O)O)C2CCCCC2)nn1-c1ccccc1F (stereo not drawn) [Example 813, 3-Cyclohexyl-3-{[1-(2-fluoro-phenyl)-5-(2-hydroxy-2,3-dimethyl-butoxy)-1H-pyrazole-3-carbonyl]-amino}-propionic acid] | < 100 nM
CC(C)CC(CC(=O)O)NC(=O)c1cc(OCC(C)(O)C(C)C)n(-c2ccccc2F)n1 (stereo not drawn) [Example 814, 3-{[1-(2-Fluoro-phenyl)-5-(2-hydroxy-2,3-dimethyl-butoxy)-1H-pyrazole-3-carbonyl]-amino}-5-methyl-hexanoic acid] | < 100 nM
CC(C)(C)C(O)COc1cc(C(=O)N[C@H](CC(=O)O)c2ccc(Cl)cc2)nn1-c1ccccc1F (stereo partly drawn) [Example 815, (R)-3-(4-Chloro-phenyl)-3-{[1-(2-fluoro-phenyl)-5-(2-hydroxy-3,3-dimethyl-butoxy)-1H-pyrazole-3-carbonyl]-amino}-propionic acid] | < 100 nM
CC(C)[C@@](C)(O)COc1cc(C(=O)N[C@@H](CC(=O)O)c2ccc(Cl)cc2Cl)nn1-c1ccccc1F [Example 816, (S)-3-(2,4-Dichloro-phenyl)-3-{[1-(2-fluoro-phenyl)-5-((R)-2-hydroxy-2,3-dimethyl-butoxy)-1H-pyrazole-3-carbonyl]-amino}-propionic acid] | < 100 nM
CC(C)[C@](C)(O)COc1cc(C(=O)N[C@@H](CC(=O)O)c2c(F)cccc2F)nn1-c1ccccc1F [Example 817, (S)-3-(2,6-Difluoro-phenyl)-3-{[1-(2-fluoro-phenyl)-5-((S)-2-hydroxy-2,3-dimethyl-butoxy)-1H-pyrazole-3-carbonyl]-amino}-propionic acid] | < 100 nM
CC(C)(C)[C@](C)(O)COc1cc(C(=O)NC(CC(=O)O)Cc2ccccc2)nn1-c1ccccc1F (stereo partly drawn) [Example 818, 3-{[1-(2-Fluoro-phenyl)-5-((S)-2-hydroxy-2,3,3-trimethyl-butoxy)-1H-pyrazole-3-carbonyl]-amino}-4-phenyl-butyric acid] | < 100 nM
CC(C)(C)[C@](C)(O)COc1cc(C(=O)N[C@@H](CC(=O)O)c2cccc(F)c2)nn1-c1ccccc1F [Example 819, (S)-3-(3-Fluoro-phenyl)-3-{[1-(2-fluoro-phenyl)-5-((S)-2-hydroxy-2,3,3-trimethyl-butoxy)-1H-pyrazole-3-carbonyl]-amino}-propionic acid] | < 100 nM

Same assay, conditions: recombinant human cathepsin A 833 ng/ml, Bodipy FL-labeled bradykinin 2 μM, pH 5.5; read-out: CATH-A IC50

Structure (SMILES) | IC50
CC(C)[C@](C)(O)COc1cc(C(=O)NC(CC(=O)O)C2CCCCC2)nn1-c1ccccc1F (stereo partly drawn) [Example 803, 3-Cyclohexyl-3-{[1-(2-fluoro-phenyl)-5-((S)-2-hydroxy-2,3-dimethyl-butoxy)-1H-pyrazole-3-carbonyl]-amino}-propionic acid] | 26.7 nM
